The subject of assay [1] is EcR/RXR receptor combinations. Description: Truncated CfEcR and MmRXR receptor combinations, luciferase reporter in NIH3T3 cells. The class given is cell-based, Choristoneura fumiferana; Mus musculus. The note with it: 0, 1, 5 or 25 uM ligand for 48 hr, FIGS. 11–14. The procedure: Briefly, polynucleotides encoding EcR or RXR receptors were truncated at the junctions of A/B, C, D, E and F domains and fused to either a GAL4 DNA binding domain encoding polynucleotide (SEQ ID NO: 43) for CfEcR, or a VP16 activation domain encoding polynucleotide (SEQ ID NO: 49) for MmRXR as described in Example 1. The resulting receptor truncation/fusion polypeptides were assayed in NIH3T3 cells. Plasmid pFRLUC (Stratagene) encoding a luciferase polypeptide was used as a reporter gene construct and pTKRL (Promega) encoding a Renilla luciferase polypeptide under the control of the constitutive TK promoter was used to normalize the transfections as described above. The analysis was performed in triplicates and mean luciferase counts were determined as described above. […]

The target of another assay is DmVgRXR + MmRXR (Drosophila melanogaster, UniProt P34021, E282G/G283S/G286V). In words: Transactivation of reporter gene through switch 1.8 in CHO cells. Format: cell-based, Drosophila melanogaster; Mus musculus. The note with it: switch 1.8, pIND(SP1)LacZ. Also noted: host or cells: CHO, NIH3T3, 293 or CV1 cells. The text has this: This system was purchased from Invitrogen Corp., Carlsbad, California. It comprises a Drosophila melanogaster EcR (“DmEcR”) with a modified DNABD fused to VP16AD and placed under the control of a CMV promoter (SEQ ID NO: 68). Full length MmRXR (SEQ ID NO: 62) was placed under the control of the RSV promoter (SEQ ID NO: 69). The reporter, pIND(SP1)LacZ, contains five copies of a modified ecdysone response element (“EcRE”, E/GRE), three copies of an SPI enhancer, and a minimal heat shock promoter, all of which were placed upstream to the LacZ reporter gene.
DmVgRXR + MmRXR, sequence (P28700 whole entry, the tested form may be a part): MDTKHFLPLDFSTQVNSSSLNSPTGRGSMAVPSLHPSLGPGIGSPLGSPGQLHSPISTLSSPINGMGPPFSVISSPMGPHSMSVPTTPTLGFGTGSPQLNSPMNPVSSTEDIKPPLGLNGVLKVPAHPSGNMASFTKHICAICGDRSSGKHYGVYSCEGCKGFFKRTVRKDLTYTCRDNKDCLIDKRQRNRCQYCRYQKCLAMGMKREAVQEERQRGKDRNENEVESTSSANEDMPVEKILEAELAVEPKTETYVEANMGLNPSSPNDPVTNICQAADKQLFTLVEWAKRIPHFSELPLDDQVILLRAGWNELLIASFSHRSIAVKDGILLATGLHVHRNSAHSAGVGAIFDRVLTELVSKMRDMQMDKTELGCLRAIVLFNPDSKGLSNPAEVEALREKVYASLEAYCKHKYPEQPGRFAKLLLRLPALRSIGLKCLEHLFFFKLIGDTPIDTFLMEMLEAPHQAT
DmVgRXR + MmRXR, sequence (P34021 whole entry E282G/G283S/G286V, the tested form may be a part): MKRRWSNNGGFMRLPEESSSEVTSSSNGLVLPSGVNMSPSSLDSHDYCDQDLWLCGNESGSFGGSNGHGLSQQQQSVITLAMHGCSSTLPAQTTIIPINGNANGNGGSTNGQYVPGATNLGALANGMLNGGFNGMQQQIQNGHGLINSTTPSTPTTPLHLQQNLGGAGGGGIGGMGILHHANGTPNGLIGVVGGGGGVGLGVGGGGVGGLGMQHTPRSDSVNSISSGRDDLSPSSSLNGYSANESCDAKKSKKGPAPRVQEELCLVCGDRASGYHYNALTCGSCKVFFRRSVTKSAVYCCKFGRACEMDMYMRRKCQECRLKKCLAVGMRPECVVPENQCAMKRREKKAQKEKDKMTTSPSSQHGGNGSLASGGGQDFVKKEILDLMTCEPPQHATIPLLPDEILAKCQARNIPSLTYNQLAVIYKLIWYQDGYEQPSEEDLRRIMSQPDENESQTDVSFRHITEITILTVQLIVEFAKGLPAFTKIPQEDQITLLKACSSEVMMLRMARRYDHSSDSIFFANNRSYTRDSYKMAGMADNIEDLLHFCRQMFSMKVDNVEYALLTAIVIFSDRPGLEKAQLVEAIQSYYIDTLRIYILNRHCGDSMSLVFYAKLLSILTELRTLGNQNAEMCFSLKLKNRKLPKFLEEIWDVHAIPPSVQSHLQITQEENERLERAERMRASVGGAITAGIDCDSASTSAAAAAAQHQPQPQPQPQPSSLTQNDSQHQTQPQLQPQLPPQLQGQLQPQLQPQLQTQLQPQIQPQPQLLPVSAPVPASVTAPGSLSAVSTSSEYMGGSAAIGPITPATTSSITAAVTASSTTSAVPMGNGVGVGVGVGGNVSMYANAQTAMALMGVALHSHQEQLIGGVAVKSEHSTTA
(§1) The cells were harvested and reporter activity was assayed.
(§2) Cells were harvested 24–48 hr after adding ligands. […] Twenty μl of lysate was assayed.

The target in another assay is T1, GAL4RXR + VP16DmEcR (Drosophila melanogaster, UniProt P34021).
T1 sequence (P34021 254-878): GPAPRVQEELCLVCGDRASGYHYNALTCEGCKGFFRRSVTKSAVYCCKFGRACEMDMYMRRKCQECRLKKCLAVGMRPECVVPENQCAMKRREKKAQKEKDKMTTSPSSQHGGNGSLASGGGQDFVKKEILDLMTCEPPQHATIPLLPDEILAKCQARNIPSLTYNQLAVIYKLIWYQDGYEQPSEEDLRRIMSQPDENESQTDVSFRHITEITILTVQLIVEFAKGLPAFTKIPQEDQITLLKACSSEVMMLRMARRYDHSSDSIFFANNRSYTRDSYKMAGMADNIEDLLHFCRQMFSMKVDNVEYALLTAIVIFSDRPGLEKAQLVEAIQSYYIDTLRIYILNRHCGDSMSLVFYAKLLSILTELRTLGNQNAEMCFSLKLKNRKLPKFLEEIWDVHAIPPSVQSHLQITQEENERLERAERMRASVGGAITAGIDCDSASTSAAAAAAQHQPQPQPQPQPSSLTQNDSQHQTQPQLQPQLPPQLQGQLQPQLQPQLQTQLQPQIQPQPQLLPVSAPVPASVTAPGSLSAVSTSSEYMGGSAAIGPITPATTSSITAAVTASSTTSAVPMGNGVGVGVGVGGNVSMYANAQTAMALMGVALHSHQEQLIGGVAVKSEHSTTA
T1 sequence (P28700 206-467 partner limits assumed): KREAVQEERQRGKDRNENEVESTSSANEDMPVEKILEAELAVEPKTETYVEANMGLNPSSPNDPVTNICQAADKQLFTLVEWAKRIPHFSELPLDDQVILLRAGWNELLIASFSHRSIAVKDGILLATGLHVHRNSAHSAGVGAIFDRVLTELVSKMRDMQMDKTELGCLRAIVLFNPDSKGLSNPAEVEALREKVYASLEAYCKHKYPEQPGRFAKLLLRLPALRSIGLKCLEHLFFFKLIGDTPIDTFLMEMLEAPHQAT
In words: Transactivation of reporter gene through switch 1.4 in CV1 cells. Format: cell-based, Mus musculus; Drosophila melanogaster. Also noted: expressed in transfected cells; host or cells: CV1 cells. The note with it: switch 1.4, pGAL4RELuc. The procedure:
This construct was prepared in the same way as switch 1.3 except CfEcRCDEF was replaced with DmEcRCDEF (SEQ ID NO: 6).
as §1
The cells were plated when they reached 50% confluency.
The same procedures described for NIH3T3 cells were followed for CV1 cells
as §2

Take `CCc1c(OC)cccc1C(=O)NN(C(=O)c1cc(C)cc(C)c1)C(C)(C)C` [N-(2-ethyl-3-methoxybenzoyl)-N′-(3,5-dimethylbenzoyl)-N′-t-butylhydrazine]: the “Sensitivity of the EcR/RXR switch to the ligand” value in assay [1] is “much more sensitive”. For the same compound, the “Mean Fold Activation with 50 μM N-(2-ethyl-3-methoxybenzoyl)-N′-(3,5-dimethylbenzoyl)-N′-t-butylhydrazine” value on DmVgRXR + MmRXR stood at 14 fold. For the same compound, the “Mean Fold Activation Through N-(2-ethyl-3-methoxybenzoyl)-N′-(3,5-dimethylbenzoyl)-N′-t-butylhydrazine” value at GAL4RXR + VP16DmEcR stood at 80 fold.

The record behind these values is patent publication US7091038B2, “Ecdysone receptor-based inducible gene expression system” (RheoGene, Inc., priority 2000, dated 2006).
